Assay results: patent US20240293513A1, “USE OF MAZDUTIDE” (INNOVENT BIOLOGICS (SUZHOU) CO., LTD., priority 2021, published 2024)

Key:
healthy subjects = assay: Single dose study in healthy subjects (18P-MC-OXAA), safety and tolerability; format: in vivo, human
Protocol: In another aspect of the present invention, provided is a pharmaceutical composition for reducing a uric acid level in a patient, comprising a compound of formula (I) or a pharmaceutically acceptable salt thereof, and at least one pharmaceutically acceptable carrier.
A single dose study in healthy subjects (18P-MC-OXAA): a single center, double-blind, randomized, placebo-controlled SAD study has been completed (ascending doses of 0.03 mg, 0.1 mg, 0.3 mg, 1.0 mg, 2.5 mg, and 5.0 mg), which mainly assessed the safety, tolerability, and PK/PD profile of mazdutide in healthy subjects.

[1] = test system: patients with obesity or overweight; assay: Safety assessment in patients with obesity or overweight (12-week dose escalation); format: in vivo, human
Protocol: (§1) Mazdutide and placebo were both administered subcutaneously once weekly. The doses were prepared and administered by study nurses according to the manual instructions of the study drugs. • 1.5 Inclusion criteria
I. Subjects with obesity or overweight meeting all of the following criteria were included in the study: • 1. Aged 18-75 years (inclusive), male or female: • 2. For obesity, BMI≥28.0 kg/m^2: for overweight, 24≤ BMI<28.0 kg/m^2 with at least one of the following: i, increased appetite, intolerable hunger before meals, and increased food consumption: ii, comorbidity with one or more of pre-diabetes (impaired fasting glucose and/or impaired glucose tolerance), hypertension, dyslipidemia (see appendix 4 for reference criteria), and fatty liver (within 6 months before the screening); iii, comorbidity with weight-bearing joint pain: iv, obesity-related dyspnea or obstructive sleep apnea syndrome: • 3. Weight change<5% after at least 12 weeks of diet/exercise weight control at the time of screening
In this study, the enrollment of 36 patients with overweight or obesity having a weight change of less than 5% after at least 12 weeks of diet/exercise control was planned. Three cohorts were included in this double-blind study: cohort 1 (n=12), cohort 2 (n=12), and cohort 3 (n=12). Subjects in each cohort were randomized in a 2:1 ratio into the mazdutide treatment group (n=8) and the placebo group (n=4). The subcutaneous dosing regimens for mazdutide or placebo in cohort 1, cohort 2 and cohort 3, are described below (as shown in FIG. 1):
(§2) Cohort 1: Subjects were administered with a starting dose of 1.0 mg once weekly for 4 weeks. If the treatment was well tolerated*, the dose was adjusted to 2.0 mg, and was administered once weekly for 4 weeks. If the treatment was well tolerated*, the dose was adjusted to 3.0 mg, and was administered once weekly for 4 weeks. (ascending at a rate of 1 mg/4 weeks to the target dose).
Cohort 2: Subjects were administered with a starting dose of 1.5 mg once weekly for 4 weeks. If the treatment was well tolerated*, the dose was adjusted to 3.0 mg, and was administered once weekly for 4 weeks. If the treatment was well tolerated*, the dose was adjusted to 4.5 mg, and was administered once weekly for 4 weeks (ascending at a rate of 1.5 mg/4 weeks to the target dose).
Cohort 3: Treatment in cohort 3 was started when the 4-week treatment at 1.5 mg was completed and well tolerated in the subjects in cohort 2: if 1.5 mg was not tolerated in cohort 2, 2.0 mg and higher doses were not investigated in cohort 3. In this cohort, subjects were administered with a starting dose of 2.0 mg once weekly for 4 weeks. If the treatment was well tolerated*, the dose was adjusted to 4.0 mg, and was administered once weekly for 4 weeks. If the treatment was well tolerated*, the dose was adjusted to 6.0 mg, and was administered once weekly for 4 weeks. (ascending at a rate of 2 mg/4 weeks to the target dose).
For patients with obesity or overweight: By Mar. 15, 2021, 36 subjects were enrolled and 36 were included in the analysis. […] Only 2 patients in cohort 1 had mild urticaria. […] The gastrointestinal events occurred at a higher rate in the treatment group than in the placebo group, which complies with the mechanism of action of the drug.

patients with diabetes = assay: Safety assessment in patients with type 2 diabetes (12-week dose escalation); format: in vivo, human
Protocol: as §1
(§3) In this study, the enrollment of 42 patients with type 2 diabetes with uncontrolled glycosylated hemoglobin despite at least 2 months of lifestyle intervention or treatment with a stable dose of metformin (≥1000 mg/day or the maximum tolerated dose). Three cohorts were included in this study: cohort 1 (n=14), cohort 2 (n=14), and cohort 3 (n=14). Subjects in each cohort were randomized in an 8:4:2 ratio into the mazdutide treatment group (n=8), the placebo group (n=4), and the dulaglutide 1.5 mg treatment group (n=2). In cohorts 1, 2, and 3, the active control drug, dulaglutide, was administered at 1.5 mg QW for 12 weeks, and the dosing regimens for mazdutide and placebo are described below:
as §2
(§4) Cohort 2: Subjects were administered with a starting dose of 1.5 mg once weekly for 4 weeks.
If the treatment was well tolerated*, the dose was adjusted to 3.0 mg, and was administered once weekly for 4 weeks. If 3.0 mg was not well tolerated but still met the tolerance criteria, the next dose was investigated in cohort 2 (backup 1): if the dose was well tolerated, the study proceeded to 4.5 mg. The treatment was given once weekly for 4 weeks, if 4.5 mg was not well tolerated but still met the tolerance criteria, the next dose was investigated in cohort 2 (backup 2). (ascending at a rate of 1.5 mg/4 weeks to the target dose).
Cohort 2 (backup 2): If 4.5 mg was not tolerated, the treatment should be discontinued for 1 week and resumed at the dose of 3.75 mg for 2 weeks until the end of study. […]

[2] = Solubility of the investigational product; format: physicochemical; conditions: 20 mM tris(hydroxymethyl)aminomethane solutions and 150 mM NaCl solutions with pH 8.0
[3] = Stability of the drug substance; format: physicochemical; conditions: ≤−20° C.
uric acid = assay: Change in uric acid from baseline in subjects with type 2 diabetes; format: in vivo, human; conditions: 1.5 mg QW for 12 weeks, day 85 post-dose vs baseline, N = 6
Protocol: FIG. 3 illustrates the change in uric acid from baseline after administration in subjects with diabetes.
as §3, §2, §4
If the treatment was well tolerated*, the dose was adjusted to 3.0 mg, and was administered once weekly for 4 weeks. […]

CC(C)C[C@H](NC(=O)[C@H](CC(C)C)NC(=O)[C@H](Cc1c[nH]c2ccccc12)NC(=O)[C@H](CCC(=O)O)NC(=O)[C@@H](NC(=O)[C@H](Cc1ccccc1)NC(=O)[C@H](CCC(=O)O)NC(=O)[C@H](CCCCNC(=O)COCCOCCNC(=O)COCCOCCNC(=O)CC[C@H](NC(=O)CCCCCCCCCCCCCCCCCCC(=O)O)C(=O)O)NC(=O)[C@H](C)NC(=O)[C@H](CCCCN)NC(=O)[C@H](CCCCN)NC(=O)[C@H](CCC(=O)O)NC(=O)[C@H](CC(=O)O)NC(=O)[C@H](CC(C)C)NC(=O)[C@H](Cc1ccc(O)cc1)NC(=O)[C@H](CCCCN)NC(=O)[C@H](CO)NC(=O)[C@H](Cc1ccc(O)cc1)NC(=O)[C@H](CC(=O)O)NC(=O)[C@H](CO)NC(=O)[C@@H](NC(=O)[C@H](Cc1ccccc1)NC(=O)[C@@H](NC(=O)CNC(=O)[C@H](CCC(N)=O)NC(=O)C(C)(C)NC(=O)[C@@H](N)Cc1c[nH]cn1)[C@@H](C)O)[C@@H](C)O)C(C)C)C(=O)N[C@@H](CCC(=O)O)C(=O)NCC(=O)NCC(=O)N1CCC[C@H]1C(=O)N[C@@H](CO)C(=O)N[C@@H](CO)C(=O)NCC(N)=O [mazdutide]
tolerability (healthy subjects; healthy subjects, dose ascended to 2.5 mg): tolerated
subjects with gastrointestinal-related AEs (mainly nausea and vomiting) (healthy subjects; healthy subjects, dose ascended to 5 mg): 6 subjects
maximum tolerated dose (MTD) for single-dose administration (healthy subjects; healthy subjects, single ascending doses 0.03-5.0 mg): 2.5 mg
safety and tolerability (healthy subjects; single-dose and multi-dose escalation studies in healthy populations): good safety and tolerability
SAEs [1]: no SAEs
acute pancreatitis [1]: no acute pancreatitis
discontinuation or withdrawal due to AEs [1]: no discontinuation or withdrawal due to AEs
dose escalation termination-related AEs [1]: no dose escalation termination-related AEs
hypoglycemia events [1]: no hypoglycemia events
severe adverse events [1]: no severe adverse events
patients with mild urticaria ([1]; cohort 1 (1 mg-2 mg-3 mg)): 2 patients
overall safety and tolerance ([1]; sc once weekly, 12 weeks): good overall safety and tolerance
anorexia rate of occurrence ([1]; treatment group): 29.2%
diarrhea rate of occurrence ([1]; treatment group): 25%
nausea rate of occurrence ([1]; treatment group): 16.7%
Gastrointestinal adverse events rate ([1]; treatment group, 15/24 cases): 62.5%
average heart rate ([1]; versus placebo group): increase in average heart rate over the placebo group
acute pancreatitis, severe hypoglycemia, allergic reaction or injection site reaction (patients with diabetes): no acute pancreatitis, severe hypoglycemia, allergic reaction or injection site reaction
dose escalation termination-related AEs (patients with diabetes): no dose escalation termination-related AEs
overall safety and tolerance (patients with diabetes; sc once weekly, 12 weeks): good overall safety and tolerance
solubility [2]: ≥ 10000 µg/mL
Stability [3]: The drug substance is stable at ≤−20 °C

Dulaglutide
Uric acid Mean of change (uric acid): 16.67 µmol/L
